Tested on: participants with SSc-RP
Assay: Scleroderma Health Assessment Questionnaire (SHAQ): disability indices and visual analog scales
Assay type: in vivo, human
Conditions: Day 12 vs baseline; PP Population, Part A; SSc patients; sensitivity analysis
From the text: The standard, validated, patient reported outcome measures tool for SSc patients, the Scleroderma Health Assessment Questionnaire (SHAQ), will be used to assess the participant qualify of life. Details are attached in the Appendix. The participant quality of life will be scored, and a disability index calculated for each questionnaire completed by the patient at Screening and each in-clinic visit. The absolute change in participant quality of life from baseline to the end of each dosing period will be calculated similar to frequency data as before.
The SHAQ includes a Raynaud's VAS, which will be reported at screening and each in-clinic visit. The absolute change in Raynaud-VAS, assessed by the participants response to the SHAQ question ‘In the past 7 days, how much have your Raynaud's interfered with your daily activities?’ at baseline and the end of each dosing period will be calculated similar to frequency data as before.
The SHAQ is used to calculate a Disability Index to assess the participant qualify of life. The eight categories assessed by the Disability Index are 1) dressing and grooming, 2) arising, 3) eating, 4) walking, 5) hygiene, 6) reach, 7) grip, and 8) common daily activities. For each of these categories, patients report the amount of difficulty they have in performing two or three specific activities.
There are four possible responses for the Disability Index questions: • Without any difficulty=0 • With some difficulty=1 • With much difficulty=2 • Unable to do=3. • The highest score reported by the patient for any component question of the eight categories determines the score for that category. • If a component question is left blank or the response is too ambiguous to assign a score, then the score for that category is determined by the remaining completed question(s). • If all component questions are blank or if more than one answer is given, then follow up with the respondent is required. • If the respondent's mark is between the response columns, then move it to the closest one. If it's directly between the two, move it to the higher one.
Each of the disability items on the SHAQ has a companion aids/devices variable that is used to record what type(s) of assistance, if any, the participant uses for his/her usual activities. These variables (see below) are coded as follows: • 0=No assistance is needed. • 1=A special device is used by the patient in his/her usual activities. • 2=The patient usually needs help from another person. • 3=The patient usually needs BOTH a special device AND help from another person.
The scoring variables and scoring rules permit the computation of two disability indices, the Standard Disability Index and the Alternative Disability Index.
This question results in a new set of category scores that are computed by adjusting the score for each category, if necessary, based on the patient's use of an aid or device or assistance for that category. If either devices and/or help from another person are checked for a category, the score is set to “2”, unless the score is already “3” (i.e., scores of “0” or “1” are increased to “2”). For example, if the highest score for the dressing category is “1”, and the patient says they use a device for dressing, the computed category score would be “2”. The sum of the computed categories scores is then calculated and divided by the number of categories answered. This gives a score in the 0 to 3 range.
The aid and device variables are not used to calculate the alternative disability index; it is calculated by adding the scores for each of the categories and dividing by the number of categories answered. This gives a score in the 0 to 3 range.
The standard, validated, patient reported outcome measures tool for SSc patients, the SHAQ, was collected at the time points specified in the study schedules (FIG. 2 and FIGS. 4A and 4B) to assess the participant's quality of life. The SHAQ included a Raynaud's VAS that will also be reported separately.

SMILES: COCCOC(=O)C1=C(C)NC(C)=C(C(=O)OC/C=C/c2ccccc2)C1c1cccc([N+](=O)[O-])c1 (stereo not drawn) [Pooled Cilnidipine]
- SHAQ Alternative Disability Index, Change from Baseline, Max: 0.38
- SHAQ Alternative Disability Index, Change from Baseline, Mean: 0.031
- SHAQ Alternative Disability Index, Change from Baseline, Median: 0.000
- SHAQ Alternative Disability Index, Change from Baseline, Min: −0.13
- SHAQ Alternative Disability Index, Change from Baseline, Q1: −0.125
- SHAQ Alternative Disability Index, Change from Baseline, Q3: 0.125
- SHAQ Alternative Disability Index, Percent Change from Baseline, Max: 100.0%
- SHAQ Alternative Disability Index, Percent Change from Baseline, Mean: 9.68%
- SHAQ Alternative Disability Index, Percent Change from Baseline, Median: −11.11%
- SHAQ Alternative Disability Index, Percent Change from Baseline, Min: −50.0%
- SHAQ Alternative Disability Index, Percent Change from Baseline, Q1: −33.33%
- SHAQ Alternative Disability Index, Percent Change from Baseline, Q3: 42.86%
- SHAQ Visual Analogue Scale - Finger Ulcers, Change from Baseline, Max: 0.40
- SHAQ Visual Analogue Scale - Finger Ulcers, Change from Baseline, Mean: −0.643
- SHAQ Visual Analogue Scale - Finger Ulcers, Change from Baseline, Median: 0.000
- SHAQ Visual Analogue Scale - Finger Ulcers, Change from Baseline, Min: −3.20
- SHAQ Visual Analogue Scale - Finger Ulcers, Change from Baseline, Q1: −1.000
- SHAQ Visual Analogue Scale - Finger Ulcers, Change from Baseline, Q3: 0.000
- SHAQ Visual Analogue Scale - Finger Ulcers, Percent Change from Baseline, Max: 133.3%
- SHAQ Visual Analogue Scale - Finger Ulcers, Percent Change from Baseline, Mean: −17.08%
- SHAQ Visual Analogue Scale - Finger Ulcers, Percent Change from Baseline, Median: −50.82%
- SHAQ Visual Analogue Scale - Finger Ulcers, Percent Change from Baseline, Min: −100.0%
- SHAQ Visual Analogue Scale - Finger Ulcers, Percent Change from Baseline, Q1: −81.37%
- SHAQ Visual Analogue Scale - Finger Ulcers, Percent Change from Baseline, Q3: 47.22%
- SHAQ Visual Analogue Scale - Intestinal Problems, Change from Baseline, Max: 0.60
- SHAQ Visual Analogue Scale - Intestinal Problems, Change from Baseline, Mean: −0.863
- SHAQ Visual Analogue Scale - Intestinal Problems, Change from Baseline, Median: −0.050
- SHAQ Visual Analogue Scale - Intestinal Problems, Change from Baseline, Min: −4.40
- SHAQ Visual Analogue Scale - Intestinal Problems, Change from Baseline, Q1: −1.650
- SHAQ Visual Analogue Scale - Intestinal Problems, Change from Baseline, Q3: 0.150
- SHAQ Visual Analogue Scale - Intestinal Problems, Percent Change from Baseline, Max: 40.0%
- SHAQ Visual Analogue Scale - Intestinal Problems, Percent Change from Baseline, Mean: −43.69%
- SHAQ Visual Analogue Scale - Intestinal Problems, Percent Change from Baseline, Median: −66.06%
- SHAQ Visual Analogue Scale - Intestinal Problems, Percent Change from Baseline, Min: −100.0%
- SHAQ Visual Analogue Scale - Intestinal Problems, Percent Change from Baseline, Q1: −100.00%
- SHAQ Visual Analogue Scale - Intestinal Problems, Percent Change from Baseline, Q3: 30.00%
- SHAQ Visual Analogue Scale - Overall Disease Severity, Change from Baseline, Max: 0.20
- SHAQ Visual Analogue Scale - Overall Disease Severity, Change from Baseline, Mean: −1.450
- SHAQ Visual Analogue Scale - Overall Disease Severity, Change from Baseline, Median: −1.550
- SHAQ Visual Analogue Scale - Overall Disease Severity, Change from Baseline, Min: −3.10
- SHAQ Visual Analogue Scale - Overall Disease Severity, Change from Baseline, Q1: −1.850
- SHAQ Visual Analogue Scale - Overall Disease Severity, Change from Baseline, Q3: −0.950
- SHAQ Visual Analogue Scale - Overall Disease Severity, Percent Change from Baseline, Max: −26.8%
- SHAQ Visual Analogue Scale - Overall Disease Severity, Percent Change from Baseline, Mean: −61.10%
- SHAQ Visual Analogue Scale - Overall Disease Severity, Percent Change from Baseline, Median: −60.00%
- SHAQ Visual Analogue Scale - Overall Disease Severity, Percent Change from Baseline, Min: −100.0%
- SHAQ Visual Analogue Scale - Overall Disease Severity, Percent Change from Baseline, Q1: −76.19%
- SHAQ Visual Analogue Scale - Overall Disease Severity, Percent Change from Baseline, Q3: −44.12%
- SHAQ Visual Analogue Scale - Pain, Change from Baseline, Max: 0.70
- SHAQ Visual Analogue Scale - Pain, Change from Baseline, Mean: −0.375
- SHAQ Visual Analogue Scale - Pain, Change from Baseline, Median: −0.250
- SHAQ Visual Analogue Scale - Pain, Change from Baseline, Min: −2.00
- SHAQ Visual Analogue Scale - Pain, Change from Baseline, Q1: −0.750
- SHAQ Visual Analogue Scale - Pain, Change from Baseline, Q3: 0.150
- SHAQ Visual Analogue Scale - Pain, Percent Change from Baseline, Max: 19.4%
- SHAQ Visual Analogue Scale - Pain, Percent Change from Baseline, Mean: −23.98%
- SHAQ Visual Analogue Scale - Pain, Percent Change from Baseline, Median: −41.18%
- SHAQ Visual Analogue Scale - Pain, Percent Change from Baseline, Min: −55.6%
- SHAQ Visual Analogue Scale - Pain, Percent Change from Baseline, Q1: −53.33%
- SHAQ Visual Analogue Scale - Pain, Percent Change from Baseline, Q3: 11.54%
- SHAQ Visual Analogue Scale - Raynaud’s, Change from Baseline, Max: 1.50
- SHAQ Visual Analogue Scale - Raynaud’s, Change from Baseline, Mean: −0.438
- SHAQ Visual Analogue Scale - Raynaud’s, Change from Baseline, Median: −0.600

From patent US20240358693A1, “METHODS OF TREATING PAIN” (Aisa Pharma, Inc., priority 2023, published 2024)
